Measured values taken from PubChem BioAssay (NCI).
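Cultured in 96-well plates, cells were exposed to test compound for 48 hours across five concentrations. GI50 = concentration required for 50% inhibition of growth. TGI denotes the concentration required for complete inhibition of growth.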

Legend:
Assay in all cases: NCI-60 cell line screen, 48 h
SF-268 CNS = test system: SF-268 CNS
OVCAR-3 ovarian = test system: OVCAR-3 ovarian
SR leukemia = test system: SR leukemia
HS 578T breast = test system: HS 578T breast
TK-10 renal = test system: TK-10 renal
NCI-H460 lung = test system: NCI-H460 lung
NCI-H522 lung = test system: NCI-H522 lung
MCF7 breast = test system: MCF7 breast
HOP-92 NSCLC = test system: HOP-92 NSCLC
BT-549 breast = test system: BT-549 breast

SMILES	TGI (SF-268 CNS) [µM]	TGI (OVCAR-3 ovarian) [µM]	TGI (SR leukemia) [µM]	TGI (HS 578T breast) [µM]	TGI (TK-10 renal) [µM]	TGI (NCI-H460 lung) [µM]	TGI (NCI-H522 lung) [µM]	TGI (MCF7 breast) [µM]	TGI (HOP-92 NSCLC) [µM]	TGI (BT-549 breast) [µM]	GI50 (SF-268 CNS) [µM]	GI50 (OVCAR-3 ovarian) [µM]	GI50 (SR leukemia) [µM]	GI50 (HS 578T breast) [µM]	GI50 (TK-10 renal) [µM]	GI50 (NCI-H522 lung) [µM]	GI50 (MCF7 breast) [µM]	GI50 (HOP-92 NSCLC) [µM]	GI50 (BT-549 breast) [µM]	GI50 (NCI-H460 lung) [µM]
CN1CCc2ccccc2C1Cc1ccccc1NC(=O)c1sc2ccccc2c1Cl (stereo not given)	> 100	> 100	> 100	> 100	> 100	> 100	> 100	> 100	> 100	> 100	–	–	–	–	–	–	–	–	–	–
COc1cc2c(/C=C3\C(=O)N(C)c4ccccc43)c[nH]c2cc1C	> 43.9	9.78	14.2	> 38.8	70.5	> 37.1	> 87.5	> 100	79.4	71.9	0.103	3.27	2.07	3.61	10.5	8.82	0.12	15.7	7.53	–
O=S(O)O.O=S(O)O.[Co].[NH2-].[NH2-].[NH2-].[NH2-]	> 100	> 100	> 100	> 100	> 100	> 100	> 100	> 100	> 100	> 100	> 100	> 100	> 100	> 100	> 100	> 100	> 100	> 100	> 100	> 100
NC(=O)c1cn(C2CC(O)C(CO)O2)c2ncnc(N)c12 (stereo not given)	> 76.9	19.6	> 100	17.3	19.5	> 100	16.2	13.9	13.6	2.87	6.17	4.09	6.6	2.27	1.96	4.27	0.376	0.429	0.203	7.69
CCCCCCCCCCCCCCCCn1cc[n+](C)c1	2.12	1.02	0.787	1.75	0.929	1.83	–	1.52	1.68	1.61	0.837	0.286	0.0742	0.383	0.254	–	0.367	0.34	0.444	0.486
O=c1[nH]c(-c2ccc(Cl)c(Cl)c2)cn1-c1ccc(Cl)cc1	59.3	59	16.2	51.8	32.4	52.2	> 100	> 100	46.3	> 100	21.6	27.7	4.64	17.2	16.5	44.3	56.3	15.9	37.7	22.3
O=C1OC2(c3ccc(O)cc3Oc3cc(O)ccc32)c2cccc3cccc1c23	> 100	–	> 100	> 100	58.1	61.4	43.7	91.3	97.6	62.7	29.5	–	27.5	22.2	27.4	17.5	19.9	19	21.6	23.1
CC(C)[C@@]12C[C@@H](OC(=O)C3CO3)[C@@](C)(O1)[C@@H]1CC[C@@H](C)[C@H]1[C@@H]2OC(=O)/C=C/c1ccccc1 (stereo not given in full)	40.2	30	> 100	3.11	65.8	34.2	37.3	83.3	27.7	27.8	12.1	15.8	29.8	0.354	29.6	17.4	19.8	12.4	11.3	17.2
OCc1ccc(-c2nc(-c3ccc4c(c3)OCO4)c(-c3ccccn3)[nH]2)cc1	> 25	> 25	> 25	> 25	> 25	> 25	> 25	> 25	> 25	> 25	> 25	> 25	> 25	> 25	> 25	> 25	> 25	> 12.9	> 25	> 20.9
